The values below come from patent publication US9918916B2, “Active ingredient comprising a mixture of unsaturated dicarboxylic fatty acids, compositions comprising said ingredient and cosmetic or dermatological uses” (SEDERMA, priority 2014, dated 2018).

Each structure is given as a SMILES string.

Common to all, as to type: cell-based
The test system of one experiment is G3PDH. Put plainly: G3PDH activity on human adipocytes. Conditions: 10 μm. As for the experimental part: In this perspective, in vitro tests aiming to show an increase in adipocyte differentiation (with glycerol-3-phosphate dehydrogenase or G3PDH as the key enzyme of this differentiation) on pre-adipocyte cultures were implemented. Other in vitro assays seek to show slower lipolysis on adipocyte cultures to validate the effectiveness of these compounds. Human pre-adipocytes are seeded and induced to differentiate with a specific mixture of inducers (without indomethacine*) in the presence or absence (negative control) of the products to be tested. After 10 days, the cultures are stopped and the residual […] activity is measured by spectrophotometry on a cellular lysate. […] Results

A further experiment has as its system hyaluronic acid. Description: Synthesis of hyaluronic acid by human keratinocytes. Conditions: 1 μm. As for the experimental part:
Human keratinocytes are cultured for 24 h. The cells are contacted with the products to be tested or their excipient for 3 days. The culture supernatants are recovered and a dosage of the amount of hyaluronic acid is achieved. Retinoic acid is used as a positive control. Quantification of cells present on the layer is carried out with the DNA dye (Hoechst 33258), so as to adjust the dosages to the number of cells.

Another experiment deals with normal human melanocytes. Put plainly: Inhibition of melanin synthesis on human melanocytes. The conditions noted are these: 0.01%. How it is done: Normal human melanocytes are cultured in their maintenance medium and then contacted with the products to be tested in the test medium for 10 days. After the contact, melanins are extracted from the cells and assayed by spectrophotometry (490 nm). An estimate of cell number is performed after cultivation using a protein assay by the BCA method. Melanin concentrations are normalized by the sample protein content.

As to `CCc1ccc(CCOc2ccc(CC3SC(=O)NC3=O)cc2)nc1` (stereo not drawn) [Pioglytazone], the “stimulation of G3PDH activity vs. control (positive control)” value with G3PDH is recorded as “+712%”.

Consider `CC1=C(/C=C/C(C)=C/C=C/C(C)=C/C(=O)O)C(C)(C)CCC1` [Retinoic Acid], for which, in the experiment on hyaluronic acid, the “stimulation of hyaluronic acid synthesis vs. control (positive control)” value is on record as “+106%”.

For `OC[C@H]1O[C@@H](Oc2ccc(O)cc2)[C@H](O)[C@@H](O)[C@@H]1O` [arbutine], the “inhibition compared to the control (melanin, positive reference)” value with normal human melanocytes worked out at 33%.
